Measured values reported in US11279708B2, “Amidino- and amino-rocaglates as novel translation inhibitors and anticancer agents” (priority 2019, dated 2022).

What was measured:
[1] = tested on: HEK 293 cells; assay: in cellula translation of transfected (AG)10- and (UC)10-FF/HCV/Ren mRNA; assay type: cell-based; details: compound added 1 h after mRNA transfection, 6 h exposure
Source text: We next asked if differences in behavior among rocaglates towards the (AG)10- and (UC)10-reporters observed in vitro also extended in cellula (FIG. 26B). This was important since in cells, mRNA transcripts need to compete for components of the translation initiation machinery from a complex cellular mRNA pool and this scenario is difficult to recapitulate in experiments using cell-free extracts. Following mRNA transfections, cells were exposed to compound and luciferase activity determined.
RNA Transfections. HEK 293 cells were transfected in a 24 well plate with 0.25 μg/well of in vitro synthesized capped m^7GpppG(AG)10-FF/HCV/Ren or m^7GpppG(UC)10FF/HCV/Ren mRNA and 1 h later were exposed to the indicated concentrations of compounds for an additional 6 h. Following this, extracts were prepared using passive lysis buffer (PLB, Promega) and luciferase activity measured on a Berthold Lumt LB 9507 luminometer.
FIGS. 26A-26B. In cellula activity of rocaglates. 26A. Cytotoxicity of rocaglates towards NIH/3T3 (grey circle) and the NIH/3T3 rocaglate-resistant line, eIF4A^em1JP(redtriangle). Cells were exposed to 40 nM compound for 4 days and viability was measured using the SRB assay. n=3±SD. 26B. Rocaglates show different sequence preferences for inhibiting cap-dependent translation in cellula. HEK 293 cells were transfected with 0.5 μg of in vitro synthesized capped (AG)10-FF/HCV/Ren or (UC)10-FF/HCV/Ren mRNA and 1h later exposed to the indicated concentrations of compounds for an additional 6 h, at which time extracts were prepared and luciferase activity measured. n=3 SD.
FIG. 28. In cellula dose-response of (AG)10- and (UC)10-FF/HCV/Ren mRNAs to hippuristanol and pateamine. Firefly and renilla luciferase activity in response to the indicated compound concentrations (relative to DMSO controls) following mRNA transfections in 293 cells. n=3±SD.

[2] = tested on: eIF4A-dependent translation; assay: in vitro translation assay, bicistronic FF/HCV/Ren reporter mRNA in Krebs-2 extracts; assay type: biochemical; details: for IC50: bicistronic FF/HCV/Ren mRNA, FIG. 14/15, read-out: IC50, inhibition of cap-dependent translation (FF relative to REN); for inhibition of cap-dependent translation in vitro (in words): screen at 2 μM compound
Description: Structure-Activity Relationships. With a number of amidino-rocaglates and amino-rocaglates in hand, we evaluated their inhibition of eIF4A-dependent translation using an in vitro assay as depicted in FIG. 14, where a bicistronic reporter mRNA was designed for translation in Krebs-2 extracts. In FIG. 14 the following description applies (a) IC50 was determined from fitted sigmoid curves; […] indicates the concentration of compound that inhibits cap-dependent translation by 50%, which was normalized by cap-independent translation. For its determination, the bicistronic reporter FF/HCV/Ren mRNA was used to produce Firefly luciferase (cap-dependent) and Renilla luciferase (cap-independent) in Krebs-2 extracts in the presence of indicated compounds at various concentrations. In particular, translation of Firefly luciferase (FF) is cap-dependent and depends on eIF4A activity; in contrast, translation of Renilla luciferase (REN) utilizes the HCV internal ribosome entry site (IRES) which functions independently of eIF4A. IC50's were determined by the inhibition of FF relative to REN obtained in the presence of compound relative to vehicle controls and normalized to REN as an internal control. […] In accordance with the eIF4A-RNA-rocaglamide (2) co-crystallographic analysis (FIG. 4), the amide carbonyl of 2 interacts with Gln195 of eIF4A as a H-bond acceptor, while the tertiary hydroxyl of 2 serves as a H-bond donor to an RNA base. […] To further verify the hypothesis, amidino-rocaglates (pKa of N—H˜26.7-30.7 in DMSO, strong H-bond donors) and amino-rocaglates (pKa of N—H˜36 to 44 in DMSO, weak H-bond donors) were next evaluated. […] Conversely, benzyl amidine 9e had IC50=60 nM, whereas the methylene tether may allow conformational adjustment to avoid rigid repulsion in the binding pocket.
The rocaglate collection was also tested in in vitro translation assays using cell-free extracts with a previously described bicistronic mRNA containing the HCV IRES, which is not dependent on eIF4A activity and served as an internal control (FIG. 19C).
In Vitro Translation Assays. In vitro translation assays performed in Krebs-2 cell extracts were supplemented with 5 mM MgCl2, 30 mM Tris-HCl (pH 7.5), 1.5 mM ATP, 0.1 mM GTP, 0.6 mM CTP, 10 mM dipotassium creatine phosphate, 80 μg/mL creatine kinase, and 0.04 mM amino acids. The specified mRNA reporters were added to each reaction at a final concentration of 10 ng/μL. The translation reactions were incubated with or without compound for 60 minutes at 30° C. prior to the measurement of luciferase activities.
FIGS. 19A-19C. Rocaglate activity profiling. 19A. Assessing eIF4A1:poly r(AG)8 (SEQ ID NO: 2) RNA binding by FP in the presence of 10 μM rocaglate. Values are expressed relative to vehicle controls and data is rank ordered. n=3±SD. 19B. The change in polarization obtained with eIF4A1:poly r(AG)8 (SEQ ID NO: 2) and eIF4A2:poly r(AG)8 (SEQ ID NO: 2) RNA. Pearson r=0.814; p<0.0001. 19C. Inhibition of cap-dependent translation by rocaglates was measured using the indicated mRNA bicistronic reporter (4 ng/ul) in Krebs-2 extracts at a final compound concentration of 2 μM. n=3±SD.
FIG. 35A-35E are plots showing dose-response curve of FF-HCV-Ren mRNA translation in Krebs extracts with IC50s shown for inhibition of cap-dependent protein synthesis. Values are plotted relative to DMSO controls. n=2 technical replicates performed in duplicate.

Compound | inhibition of (AG)10 versus (UC)10 reporter in cellula (in words) [1] | IC50 [2] [nM] | inhibition of cap-dependent translation in vitro (in words) [2]
COC(=O)[C@@H]1[C@@H](c2ccccc2)[C@]2(c3ccc(OC)cc3)Oc3cc(OC)cc(OC)c3[C@@]23N=C(C)N[C@@]13O [9b] | slight preference for inhibiting the (AG)10-FF/HCV/Ren reporter mRNA | 189 | comparable potency to SDS-1-021
CONC(=O)[C@H]1[C@@H](O)[C@@]2(O)c3c(OC)cc(OC)cc3O[C@@]2(c2ccc(OC)cc2)[C@@H]1c1ccccc1 [CR-1-31-B] | showed preference for inhibiting (AG)10-FF/HCV/Ren over (UC)10-FF/HCV/Ren mRNA | 272 | 
COC(=O)[C@H]1[C@@H](O)[C@@]2(O)c3c(OC)cc(O[C@@H]4O[C@@H]([C@H](O)CO)CO[C@H]4OC)cc3O[C@@]2(c2ccc(OC)cc2)[C@@H]1c1ccccc1 [silvestrol] | inhibited both reporters equally |  | potently inhibit cap-dependent translation
